Assay results reported in patent US11414402B2, “Sulfonamide-substituted cyanopyrrolidines with activity as DUB inhibitors” (MISSION THERAPEUTICS LIMITED, priority 2017, dated 2022).

How the values were obtained:
UCHL1 = UCHL1 (Homo sapiens (Human), UniProt P09936); experiment: UCHL1 biochemical IC50 assay (fluorescence polarisation)
Method: The UCHL1 construct was PCR amplified and cloned into a pFLAG-CMV-6a vector (Sigma-Aldrich) with an N-terminal FLAG tag. HEK293T cells were transfected with FLAG-UCHL1 using TransIT-LT1 transfection reagent (Mirus) according to the manufacturer's instructions. Cells were harvested 40 hours after transfection. […] The resin was washed two times with low salt buffer and one time with high salt buffer (20 mM Tris, pH 7.5, 500 mM NaCl, 0.5 mM EDTA, 5 mM beta-mercaptoethanol, protease inhibitors (complete mini, Roche) and phosphatase inhibitors (PhosSTOP mini, Roche). To elute the bound UCHL1, elution buffer (10 mM Tris, pH 7.5, 150 mM NaCl, 0.5 mM EDTA, 10% glycerol, 0.5% NP40, 5 mM beta-mercaptoethanol, 0.15 mg/ml 3× FLAG peptide (Sigma-Aldrich)) was added to the resin and incubated at 4° C. for 2.5 hours rotating. The resin was centrifuged at 4000 rpm for 30 seconds, and the supernatant containing purified FLAG-UCHL1 was removed and stored at −80° C.
UCHL1 was diluted in reaction buffer (20 mM Tris, pH 7.5, 100 mM NaCl, 0.05% Tween 20, 0.5 mg/ml BSA, 5 mM beta-mercaptoethanol) to the equivalent of 0, 0.01, 0.05, 0.1, 0.5, and 1 μl/well. Buffer was optimised for optimal temperature, pH, reducing agent, salts, time of incubation, and detergent. Reactions were initiated by the addition of 50 nM of TAMRA labelled peptide linked to ubiquitin via an iso-peptide bond as fluorescence polarisation substrate. Reactions were incubated at room temperature and read every 2 min for 120 min. Readings were performed on a Pherastar Plus (BMG Labtech). λ Excitation 540 nm; λ Emission 590 nm.
A typical 8-point dilution series to be 30, 10, 3, 1, 0.3, 0.1, 0.03, 0.01 μM final. […] Either 1 μl of 50% DMSO or diluted compound was added to the plate. UCHL1 was diluted in reaction buffer (20 mM Tris, pH 7.5, 100 mM NaCl, 0.05% Tween 20, 0.5 mg/ml BSA, 5 mM beta-mercaptoethanol) to the equivalent of 0.05 μl/well and 10 μl of diluted UCHL1 was added to the compound. Enzyme and compound were incubated for 30 min at room temp. Reactions were initiated by the addition of 50 nM of TAMRA labelled peptide linked to ubiquitin via an iso-peptide bond as fluorescence polarisation substrate. Reactions were read immediately after addition of substrate and following a 2-hour incubation at room temperature. Readings were performed on a Pherastar Plus (BMG Labtech). λ Excitation 540 nm; λ Emission 590 nm.

USP30 = USP30 (Homo sapiens (Human), UniProt Q70CQ3); experiment: USP30 biochemical IC50 assay (fluorescence polarisation)
Method: A typical 8-point dilution series would be 100, 30, 10, 3, 1, 0.3, 0.1, 0.03 μM final. […] Either 1 μl of 50% DMSO or diluted compound was added to the plate. USP30 was diluted in reaction buffer (40 mM Tris, pH 7.5, 0.005% Tween 20, 0.5 mg/ml BSA, 5 mM beta-mercaptoethanol) to the equivalent of 0.05 μl/well and 10 μl of diluted USP30 was added to the compound. Enzyme and compound were incubated for 30 min at room temp. Reactions were initiated by the addition of 50 nM of TAMRA labelled peptide linked to ubiquitin via an iso-peptide bond as fluorescence polarisation substrate. Reactions were read immediately after addition of substrate and following a 2-hour incubation at room temperature. Readings were performed on a Pherastar Plus (BMG Labtech). λ Excitation 540 nm; λ Emission 590 nm.

UCHL1, sequence (P09936 whole entry): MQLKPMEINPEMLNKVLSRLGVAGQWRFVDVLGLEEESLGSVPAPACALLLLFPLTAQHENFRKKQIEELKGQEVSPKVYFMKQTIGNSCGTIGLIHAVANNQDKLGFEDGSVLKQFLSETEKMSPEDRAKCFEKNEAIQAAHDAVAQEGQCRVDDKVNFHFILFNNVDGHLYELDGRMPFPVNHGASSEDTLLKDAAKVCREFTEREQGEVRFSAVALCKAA
USP30, sequence (Q70CQ3 57-517): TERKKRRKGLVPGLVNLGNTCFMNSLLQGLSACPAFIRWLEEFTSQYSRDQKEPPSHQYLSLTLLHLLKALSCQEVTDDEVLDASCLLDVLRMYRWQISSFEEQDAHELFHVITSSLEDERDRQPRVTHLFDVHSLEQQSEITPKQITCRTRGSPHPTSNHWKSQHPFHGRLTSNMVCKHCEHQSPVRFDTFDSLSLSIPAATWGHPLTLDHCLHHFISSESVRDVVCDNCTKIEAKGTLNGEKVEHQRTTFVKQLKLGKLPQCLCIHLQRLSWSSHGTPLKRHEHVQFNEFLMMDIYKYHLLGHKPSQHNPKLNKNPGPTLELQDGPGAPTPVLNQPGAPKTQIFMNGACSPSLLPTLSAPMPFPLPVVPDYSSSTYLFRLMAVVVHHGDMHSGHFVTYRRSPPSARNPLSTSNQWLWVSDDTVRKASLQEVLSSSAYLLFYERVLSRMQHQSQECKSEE

IC50 (UCHL1): 10 to 100 µM | IC50 (USP30): 0.1 to 1 µM
SMILES: N#CN1CCC(S(=O)(=O)Nc2ccc(-c3ccccc3)cc2)C1 (centres unmarked) [Example 26, N-([1,1′-biphenyl]-4-yl)-1-cyanopyrrolidine-3-sulfonamide]
